Reference: US20080287445A1, “Prokineticin 2 receptor antagonists” (priority 2005, published 2008)
Several values for one entry are separate records, joined by “and”; a condition that tells them apart may be missing. Equal entries are not always repeated.

What was measured:
[1] = target: T1, GPR73 (prokineticin 1 receptor) (Homo sapiens, UniProt Q8TCW9); assay: PK1 functional assay: Ca2+ mobilization screening for PK1 antagonists on the FLIPR; type: cell-based; settings: HEK 293 GPR73 cells, multiple values = multiple testing; for Ca^2+ Mobilization % Inh @ 10 μM: 10 μM compound; for inhibition at 10 µM: HEK293, 10 μM compound, read-out: Ca^2+ Mobilization % Inh @ 10 μM; for IC50: PK1 ligand preparation at its EC50, read-out: Ca^2+ Mobilization IC50
T1 construct: expressed in transfected cells; host or cells: HEK 293
Method in brief: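 HEK293 cells expressing human GPR73 were loaded with Calcium Plus dye, then on FLIPR given compound for 4 min 15 s before PK1 ligand at its predetermined EC50. Baseline-subtracted fluorescence over 1 min 45 s gave percent inhibition versus maximal signal; IC50 fitted.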

[2] = test system: Cholera toxin evoked increase in baseline Isc; set-up: species or system rat
[3] = test system: ileum mucosal tissues from PK1 receptor knock-out mice; assay: PK1-evoked Isc in ileum mucosal tissues from PK1 receptor knock-out mice; settings: exogenous PK1 peptide

T1 sequence (Q8TCW9 whole entry, species assumed): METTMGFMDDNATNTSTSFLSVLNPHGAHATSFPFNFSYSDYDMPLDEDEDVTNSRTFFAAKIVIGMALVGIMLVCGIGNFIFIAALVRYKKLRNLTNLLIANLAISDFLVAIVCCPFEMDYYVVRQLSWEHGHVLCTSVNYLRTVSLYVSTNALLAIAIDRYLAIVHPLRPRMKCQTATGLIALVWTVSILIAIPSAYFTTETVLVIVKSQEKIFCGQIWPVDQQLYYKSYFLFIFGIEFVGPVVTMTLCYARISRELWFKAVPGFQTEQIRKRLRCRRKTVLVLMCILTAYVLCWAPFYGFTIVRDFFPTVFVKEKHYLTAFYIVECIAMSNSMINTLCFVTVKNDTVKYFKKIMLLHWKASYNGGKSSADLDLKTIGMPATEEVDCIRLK

| Molecule | Ca^2+ Mobilization % Inh @ 10 μM [1] | inhibition at 10 µM [1] | IC50 [1] | suppression of Cholera toxin-evoked increase in Isc (in words) [2] | suppression of sustained increase in baseline Isc evoked by Cholera toxin [2] | change in Isc compared to wild-type littermates [3] |
| --- | --- | --- | --- | --- | --- | --- |
| COc1ccc(Cn2c(NCc3cccnc3N)nc(=O)n(Cc3ccc(OC)cc3)c2=O)cc1 [Cpd 3, 6-[(2-Amino-pyridin-3-ylmethyl)-amino]-1,3-bis-(4-methoxy-benzyl)-1H-[1,3,5]triazine-2,4-dione] | 94% and 100% | 83% | 34 nM and 61 nM and 82 nM | suppresses | 50-60% | – |
| COc1ccc(Cn2c(NCc3cccnc3N)nc(=O)n(Cc3cc4ccccc4o3)c2=O)cc1 [Cpd 23] | – | 97% | 231 nM | – | – | – |
| COc1ccc(Cn2c(=O)nc(NCc3cnc(C)cc3C)n(Cc3ccc(OC)c(F)c3)c2=O)cc1 [Cpd 204] | – | 102% | 68 nM | – | – | – |
| Cc1cc(C)c(CNc2nc(=O)n(Cc3ccc4c(c3)CCO4)c(=O)n2Cc2ccc(OC(F)F)cc2)c(N)n1 [Cpd 176] | 98% | 96% | 23 nM and 48 nM and 130 nM | – | – | – |
| COc1ccc(Cn2c(=O)nc(NCc3cnc(C)cc3C)n(Cc3ccc(OC)cc3F)c2=O)cc1 [Cpd 206] | – | 102% | 46 nM | – | – | – |
| COc1ccc(Cn2c(NCc3cc(C)ccn3)nc(=O)n(Cc3ccc(OC)cc3)c2=O)cc1 [Cpd 62] | – | 52% | 2030 nM | – | – | – |
| COCCCCCn1c(NCc2c(C)cc(C)nc2N)nc(=O)n(Cc2ccc(Cl)c(Cl)c2)c1=O [Cpd 255] | – | 99% | 78 nM | – | – | – |
| COC(=O)c1ccc(Cn2c(NCc3cccnc3N)nc(=O)n(Cc3ccc(OC)cc3)c2=O)cc1 [Cpd 36] | – | 84% | 270 nM | – | – | – |
| Cc1cc(C)c(CNc2nc(=O)n(Cc3ccc4c(c3)OCO4)c(=O)n2Cc2ccc(OC(F)F)cc2)cn1 [Cpd 208] | – | 73% | 1270 nM | – | – | – |
| COc1ccc(Cn2c(NCc3cccnc3N)nc(=O)n(Cc3ccccc3)c2=O)cc1 [Cpd 43] | – | 78% | 801 nM | – | – | – |
| COc1ccc(Cn2c(=O)nc(NCc3cccnc3N)n(Cc3ccc(S(C)(=O)=O)cc3)c2=O)cc1 [Cpd 131] | – | 100% | 122 nM | – | – | – |
| COCCCCCn1c(NCc2cccnc2N)nc(=O)n(Cc2ccc(OC)cc2)c1=O [Cpd 78, 6-[(2-Amino-pyridin-3-ylmethyl)-amino]-3-(4-methoxy-benzyl)-1-(5-methoxy-pentyl)-1H-[1,3,5]triazine-2,4-dione] | 95% | 94% | 36 nM and 113 nM | – | – | – |
| COc1ccc(Cn2c(=O)nc(NCc3cnc(C)cc3C)n(Cc3ccc(N4C(=O)c5ccccc5C4=O)cc3)c2=O)cc1 [Cpd 152] | – | 91% | 240 nM | – | – | – |
| Cc1cc(C)c(CNc2nc(=O)n(Cc3ccc4snnc4c3)c(=O)n2Cc2ccc3c(c2)CCO3)cn1 [Cpd 243] | – | 75% | 914 nM | – | – | – |
| COc1ccc(Cn2c(NCc3cccnc3N)nc(=O)n(Cc3ccccc3OC)c2=O)cc1 [Cpd 143] | – | 31% | > 10000 nM | – | – | – |
| COc1ccc(Cn2c(NCc3ccc(N)nc3)nc(=O)n(Cc3ccc(Cl)cc3)c2=O)cc1 [Cpd 5] | – | 81% | 1120 nM | – | – | – |
| Cc1cc(C)c(CNc2nc(=O)n(Cc3ccc4c(c3)nnn4C)c(=O)n2Cc2ccc(OC(F)F)cc2)c(N)n1 [Cpd 221] | 96% | 98% | 45 nM and 72 nM | – | – | – |
| COCCCCCn1c(NCc2c(C)cc(C)nc2N)nc(=O)n(Cc2ccc(OC)cc2)c1=O [Cpd 224, 6-[(2-Amino-4,6-dimethyl-pyridin-3-ylmethyl)-amino]-3-(4-methoxy-benzyl)-1-(5-methoxy-pentyl)-1H-[1,3,5]triazine-2,4-dione] | – | 97% | 7 nM and 11 nM | – | – | – |
| COc1ccc(Cn2c(=O)nc(NCc3cnc(C)cc3C)n(Cc3cccc4[nH]ccc34)c2=O)cc1 [Cpd 139] | 97% and 100% | 92% | – | – | – | – |
| COc1ccc(Cn2c(CCc3cccc(N)n3)cc(=O)n(Cc3ccc(OC)cc3)c2=O)cc1 [Cpd 223, 6-[2-(6-Amino-pyridin-2-yl)-ethyl]-1,3-bis-(4-methoxy-benzyl)-1H-pyrimidine-2,4-dione] | – | 53% | 5680 nM | – | – | – |
| COc1ccc(Cn2c(NCc3cccnc3N)nc(=O)n(Cc3ccc(I)cc3)c2=O)cc1 [Cpd 89] | – | 82% | 817 nM | – | – | – |
| Nc1cccc(CNc2nc(=O)n(Cc3ccc(F)cc3)c(=O)n2Cc2ccc(OC(F)F)cc2)n1 [Cpd 156] | – | 70% | 3220 nM | – | – | – |
| COc1ccc(Cn2c(NCc3ccc4c(n3)NCCC4)nc(=O)n(Cc3ccc(F)cc3)c2=O)cc1 [Cpd 21, 3-(4-Fluoro-benzyl)-1-(4-methoxy-benzyl)-6-[(5,6,7,8-tetrahydro-[1,8]naphthyridin-2-ylmethyl)-amino]-1H-[1,3,5]triazine-2,4-dione] | – | 85% | 656 nM | – | – | – |
| COc1ccc(Cn2c(NCc3cnc(C)cc3C)nc(=O)n(Cc3ccc4occc4c3)c2=O)cc1 [Cpd 133] | – | 88% | 582 nM | – | – | – |
| COCCNc1ncccc1CNc1nc(=O)n(Cc2ccc(F)cc2)c(=O)n1Cc1ccc(OC)cc1 [Cpd 28, 3-(4-Fluoro-benzyl)-1-(4-methoxy-benzyl)-6-{[2-(2-methoxy-ethylamino)-pyridin-3-ylmethyl]-amino}-1H-[1,3,5]triazine-2,4-dione] | 90% and 91% | 85% | – | – | – | – |
| CCNc1ncccc1CNc1nc(=O)n(Cc2ccc(F)cc2)c(=O)n1Cc1ccc(OC)cc1 [Cpd 19] | – | 83% | 885 nM | – | – | – |
| Cc1cc(C)c(CNc2nc(=O)n(Cc3ccc(O)cc3)c(=O)n2Cc2ccc(OC(F)F)cc2)cn1 [Cpd 181] | – | 61% | 3730 nM | – | – | – |
| COc1ccc(Cn2c(NCc3cc(-c4ccccc4)cnc3N)nc(=O)n(Cc3ccc(OC)cc3)c2=O)cc1 [Cpd 57] | – | 59% | 4770 nM | – | – | – |
| PK1: Recombinant human prokineticin-1 expressed in HEK 293 cells, FLAG epitope cleaved; preparation holds full-length and a four C-terminal residue truncated product (protein, UniProt P58294 20-105, looked up, mixture with C-terminally truncated product) Prokineticin-1: AVITGACERDVQCGAGTCCAISLWLRGLRMCTPLGREGEECHPGSHKVPFFRKRKHHTCPCLPNLLCSRFPDGRYRCSMDLKNINF | – | – | – | – | – | failed to elicit a significant change in Isc |
